Assay results taken from patent publication EP0883624B1, “TETRAETHER LIPIDS AND LIPOSOMES CONTAINING SAID LIPIDS, AND USE OF THE SAME” (Humatrix AG, priority 1996, dated 1997).

Experiment: Capacitance of a black lipid membrane
Assay type: physicochemical
Settings: Porengröße von 0,8 mm
Description: Das Überspannen von Poren mit einer Lipidschicht ermöglicht nicht nur Einsatz solcher Systeme bei Separations- und Transportvorgängen (Dialyse, Umkehrosmose etc.), sondern auch im Bereich von Piezo- und Pyroelektrik, Mikrokondensatortechnik, nicht-linearer Optik und Biosensorik. Die Kapazität einer stabilen Black-Lipid-Membran aus TEL ist bei einer Porengröße von 0,8 mm 0,744 µF/cm^2.

In the case of “2,3,2',3'-Tetra-O-dibiphytanyl-di-sn-glycerol-1'-β-gulosyl-1-phosphoryl-3"-sn-glycerols [TEL]”, the “Kapazität einer stabilen Black-Lipid-Membran” value was 0,744 µF/cm^2.
